Type in all cases: in vivo, Caenorhabditis elegans
The subject of one data set is C. elegans strain TJ1060. Briefly: Glutathione depletion: survival after diethyl maleate (DEM) exposure. To be noted: for DEM toxicity (survival): 4-day old worms, 200 μM Lip-1 or 250 μM SIH from late L4. The method, then:
Diethyl maleate (DEM; Sigma-Aldrich) was added to neat DMSO and added to molten NGM at 55° C. to a final concentration of 5^o 10^o 15 or 20 mM DEM and 0.5% v/v DMSO. Plates were seeded with OP50 and used within 24 hours. As above^o data was collected at 25 (±1) ° C. using the temperature sensitive-sterile strain TJ1060. A synchronous population was obtained by transferring egg-laying adults to fresh plates at 16° C. for 2-3 hours. The adults were removed and the plates with eggs then transferred to 25° C. to ensure sterility. After 48 hours at 25° C.^o when worms were at the late L4/young adult stage^o 25-35 nematodes were transferred to fresh plates containing either vehicle control^o 250 μM SIH^o or 200 μM Lip-1. Worms were aged at 25° C. for a further 4 days and then transferred to DEM plates. Survival^o determined by touch-provoked movement^o was scored at 24 and 48 hours after exposure to DEM.
Aging studies were also undertaken to determine changes with age of both survival after DEM exposure and basal glutathione levels. Initial populations were obtained as describe above^o with worms aged on standard NGA plates. Note that here we refer to the age of adults as determined by the number of days following the last larval molt and therefore reflects the number of days of adulthood^o not the time since egg.
For survival with increasing DEM dose response and protection by compounds (Lip-1 and SIH), data was plotted as fraction of animal alive with upper and lower 95% confidence interval, using the Wilson ‘score’ method using asymptotic variance and fitted with a sigmoidal curve (Prism). Pairwise comparisons of treated groups versus control at each concentration of DEM was determined using the N-1 chi-squared test.

For data set [1], the system named is Fe^2+/Fe(total) in anterior intestinal cells. Kind of data set: XANES imaging of iron speciation. To be noted: for age-related increase in the Fe^2+ fraction: anterior intestinal region. The method, then:
Adult C. elegans were removed from NGM, washed four times in excess ice-cold S-basal (0.1 M NaCl; 0.05 M KHPO4 at pH 6.0). Samples were transferred onto 0.5 μm-thick silicon nitride (Si3N4) window (Silson), excess buffer wicked away and then the slide was frozen in situ under a laminar stream of 100° K. dry nitrogen (N2) gas.
The beam energy was selected using a Si(311) double-crystal monochromator with a resolution of ˜0.5 eV. !XANES imaging was achieved by recording Fe XRF at 106 incident energies spanning the Fe Kedge (7112 eV). Measurement energy interval was commensurate with anticipated structure in the XANES:
As for XFM, !XANES measurements used a beam spot ^˜2×2 jim but data was recorded using continuous scanning at 0.2 mm sec^−1 (binned at 2 jim intervals). Transit time through each virtual pixel was 10 ms and the incident X-ray intensity at 7455 eV was ^˜1.67×10^10 photons s^−1. These imaging parameters gave a total dose associated with the qXANES measurement estimated at ^˜5 MGy. This value is commensurate with doses typically delivered during bulk X-ray absorption spectroscopy. qXANES Analysis
The XANES spectra from an iron foil (50.1 jig cm^−2, Micromatter Canada) was measured to monitor the energy calibration of the beamline. The maxima of the first peak in the derivative spectra of the iron foil was subsequently defined as 7112.0 eV. The energy stability of beamline has been determined at <0.25 eV over 24 hrs making energy drift over the course of a scan negligible. Consistency of the measured edge positions in conjunction with stability of beam position and flux recorded in ion chambers upstream the specimen position provide confidence that energy stability was high through the duration of the experiment. Small position drifts were aligned by cross-correlation of the calcium map which remains essentially constant throughout the energy series.
The aligned qXANES image series is stack of images, one per incident energy allowing the XANES of individual cells to be assessed. Previous work has shown that the distribution of calcium is a useful marker for the position of C. elegans intestinal cells, and we used this information to identify regions of interest in the qXANES stack corresponding to anterior intestinal cells. Anterior intestinal cells were chosen due to their consistent and robust iron content.
As all points on the specimen represent a heterogenous mixture of iron binding species the resulting XANES spectra are admixtures with contributions from all of these components. The technical particulars of the XFM beamline (being primarily designed for elemental mapping) are not optimized for high resolution spectroscopy and our XANES spectra are relatively sparse. For iron K-edge XANES the abrupt increase in absorption coefficient at the critical threshold obscures the presence of […] and 1s→4p electronic transitions. It has been shown that the relative intensity of these transitions provides the proportional contribution of Fe^2+ and Fe^3+ to the XANES and can be assessed by interrogating the first derivative of the XANES spectra.

In another data set the test system is Wild type (N2). Briefly: Fertility analysis. The note with it: treated from early adulthood/late L4; for Early fertility (first 24 hours): p>0.4. How it is done: Wild type (N2) adults (4-day post egg lay) were transferred to fresh plates for 30 minutes at 20° C. to establish a developmentally synchronous population. Adult nematodes were then removed, and eggs were then transferred to 25° C. As with the survival analyses, after 48 hours at 25° C., when worms were at the late L4/young adult stage individual nematodes were transferred to plates containing vehicle control, 250 μM SIH, or 200 μM Lip-1. After 24 hours, adult worms were transferred to fresh plates and transferred daily until the end of the fertile period. After allowing progeny to develop for 2 days at 20° C., they were then counted to determine daily and total fertility. Early fertility is determined by the number of progeny laid in the first 24-hour period. Differences in fertility (i.e. early and total reproductive output) were assessed using an ordinary one-way analysis of variance (ANOVA), followed by a Tukey's multiple comparison test (as implemented by Prism v7.0a, GraphPad Software).

The mark [2] stands for this setting: TJ1060, Day 8, anterior intestinal cells.
The mark [3] stands for this setting: aged animals under intervention.

Counter-ions that a name gives are not always drawn.

Regarding `O=C(N/N=C/c1ccccc1O)c1ccncc1` [SIH, Salicylaldehyde isonicotinoyl hydrazone], the “DEM toxicity (survival)” value in the data set with C. elegans strain TJ1060 is on record as “rescued”. Besides, the “Mean Fe^2+/Fe(total)” value in data set [1] (setting [2]) was determined as 0.236. The “Fe^2+ fraction of the total iron” value in data set [1] (setting [3]) is listed as “≈ 0.2”. The “age-related increase in the Fe^2+ fraction” value in data set [1] is “normalized to that of a young animal”. For the same compound, in the data set with Wild type (N2), the lifetime reproductive output entry is “no effect” and the “Early fertility (first 24 hours)” value is listed as “not altered”.
As for `CCOC(=O)/C=C\C(=O)OCC` [DEM, Diethyl maleate], the lethality entry with C. elegans strain TJ1060 (10 mM DEM, 24-hour exposure, 4-day old adult worms) is given as “≈ 50%”. Further, the “death of adult worms” value with C. elegans strain TJ1060 (DEM≥1 mM, 4-day old adult worms, dose- and time-dependent) is “induced death”. The “Fe^2+ fraction of the total iron” value in data set [1] (4 day old wild type worms, lethal glutathione depletion by DEM) was “about 0.3”. Further, the “Mean Fe^2+/Fe(total)” value in data set [1] (N2, Day 4 + DEM) is listed as 0.310. In data set [1] (wild type (N2) animals treated with DEM), the “Fe^2+/Fe(total)” value was “markedly increased”.
As for `Clc1cccc(CNC2=Nc3ccccc3NC23CCNCC3)c1` [Lip-1, N-[(3-chlorophenyl)methyl]-spiro[piperidine-4,2′(1′H)-quinoxalin]-3′-amine], the “DEM toxicity (survival)” value in the data set on C. elegans strain TJ1060 is “rescued”. In addition, the “Mean Fe^2+/Fe(total)” value in data set [1] (setting [2]) worked out at 0.231. Also, the “Fe^2+ fraction of the total iron” value in data set [1] (setting [3]) is on record as “≈ 0.2”. For the same compound, the “age-related increase in the Fe^2+ fraction” value in data set [1] is recorded as “normalized to that of a young animal”. In the data set with Wild type (N2), the lifetime reproductive output entry is “small decrease” and the “Early fertility (first 24 hours)” value is recorded as “not altered”.

The record behind these values is patent publication US20230172940A1, “METHODS OF EXTENDING LIFESPAN BY ADMINISTERING FERROPTOSIS INHIBITORS” (COLLABORATIVE MEDICINAL DEVELOPMENT, LLC, priority 2020, published 2023).
